Columns and labels:
analgesia [1] = conditions: Tseng et al.; cited from earlier work
analgesia [2] = conditions: Loh et al.; cited from earlier work
[3] = system: growth hormone and prolactin release; conditions: rat; Dupont et al., Rivier et al.; cited from earlier work
analgesia [4] = assay: analgesia on intracerebroventricular administration; assay type: in vivo
growth hormone release = assay: growth hormone release, serum concentration, procedure of Lien et al. Febs. Letters 88 208-210 (1978); assay type: in vivo; conditions: 2 milligrams per kilogram; control 55±8 ng/ml; p<0.05
Procedure: Illustrative of the growth hormone releasing ability of the compounds of this invention is the activity of des-(66-88)-β-endorphin, representative of the other compounds, which at 2 milligrams per kilogram caused growth hormone release to result in a serum concentration of 380±124 ng/ml. as related to the control concentration of 55±8 ng/ml. at a confidence level of p<0.05, following the procedure of Lien et al. Febs. Letters 88 208-210 (1978).

Substance	analgesic activity by intravenous injection (analgesia [1])	analgesic activity by intracerebral administration (analgesia [2])	growth hormone release stimulation [3]	prolactin release stimulation [3]	intracerebroventricular analgesic activity (analgesia [4])	growth hormone serum concentration (growth hormone release) [ng/mL]
H-Tyr-Gly-Gly-Phe-Met-Thr-Ser-Glu-Lys-Ser-Gln-Thr-Pro-Leu-Val-Thr-Leu-Phe-Lys-Asn-Ala-Ile-Ile-Lys-Asn-Ala-His-Lys-Lys-Gly-Gln-OH (H-YGGFMTSEKSQTPLVTLFKNAIIKNAHKKGQ-OH) [β-Endorphin, naturally occurring peptide isolated by Bradbury et al. and Li et al]	potent analgesic activity	potent analgesic activity	growth hormone and prolactin release stimulation	growth hormone and prolactin release stimulation	–	–
L-Tyrosyl-glycyl-glycyl-L-phenylalanyl-L-methionyl-L-lysyl-glycyl-L-glutamine diacetate [des-(66-88)-β-endorphin]	–	–	–	–	intracerebroventricular analgesic agents	380 ± 124
